According to publication PMC11649115, “In vitro safety evaluation of dopamine D3R antagonist, R-VK4-116, as a potential medication for the treatment of opioid use disorder” (PLOS ONE, 2024):
Read-outs that look alike come from different tables or passages of the source.

How the values were obtained:
[1] = target: T1, Kir2.1 (Homo sapiens, UniProt P63252); assay: CiPA IonChannelProfiler Cardiac Panel, QPatch; type: cell-based; conditions: mean of two sample results
T1 sequence (P63252 1-427): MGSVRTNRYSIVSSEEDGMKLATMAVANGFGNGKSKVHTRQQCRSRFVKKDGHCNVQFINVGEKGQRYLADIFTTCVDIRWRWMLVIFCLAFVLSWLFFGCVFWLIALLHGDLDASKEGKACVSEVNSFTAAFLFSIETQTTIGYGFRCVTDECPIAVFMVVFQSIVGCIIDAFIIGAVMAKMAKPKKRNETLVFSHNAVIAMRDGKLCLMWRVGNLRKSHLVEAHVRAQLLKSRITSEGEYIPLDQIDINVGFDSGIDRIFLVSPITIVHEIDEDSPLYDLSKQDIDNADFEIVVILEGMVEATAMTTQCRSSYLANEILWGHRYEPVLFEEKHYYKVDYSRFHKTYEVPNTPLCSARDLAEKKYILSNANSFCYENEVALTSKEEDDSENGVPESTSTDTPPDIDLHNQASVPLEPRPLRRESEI

[2] = target: CYP2C9 (Homo sapiens, UniProt P11712); assay: CYP inhibition in human liver microsomes; conditions: human
CYP2C9, sequence (P11712 whole entry): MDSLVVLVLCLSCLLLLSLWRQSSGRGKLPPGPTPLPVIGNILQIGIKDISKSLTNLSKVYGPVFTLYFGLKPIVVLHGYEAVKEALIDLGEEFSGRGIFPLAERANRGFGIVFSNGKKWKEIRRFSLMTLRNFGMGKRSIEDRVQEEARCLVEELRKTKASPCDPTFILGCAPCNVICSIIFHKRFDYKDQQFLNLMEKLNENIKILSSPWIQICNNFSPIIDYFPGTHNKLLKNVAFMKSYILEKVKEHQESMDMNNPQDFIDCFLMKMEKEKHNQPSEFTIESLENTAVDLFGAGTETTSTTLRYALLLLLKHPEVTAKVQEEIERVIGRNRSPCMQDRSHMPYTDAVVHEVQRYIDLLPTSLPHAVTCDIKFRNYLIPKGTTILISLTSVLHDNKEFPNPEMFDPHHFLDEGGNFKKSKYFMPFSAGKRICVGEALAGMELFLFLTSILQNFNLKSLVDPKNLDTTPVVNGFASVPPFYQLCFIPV

[3] = target: T2, CYP2B6 (Homo sapiens, UniProt P20813); assay: CYP inhibition in human liver microsomes; conditions: human, human liver microsomes, probe bupropion
T2 sequence (P20813 1-491): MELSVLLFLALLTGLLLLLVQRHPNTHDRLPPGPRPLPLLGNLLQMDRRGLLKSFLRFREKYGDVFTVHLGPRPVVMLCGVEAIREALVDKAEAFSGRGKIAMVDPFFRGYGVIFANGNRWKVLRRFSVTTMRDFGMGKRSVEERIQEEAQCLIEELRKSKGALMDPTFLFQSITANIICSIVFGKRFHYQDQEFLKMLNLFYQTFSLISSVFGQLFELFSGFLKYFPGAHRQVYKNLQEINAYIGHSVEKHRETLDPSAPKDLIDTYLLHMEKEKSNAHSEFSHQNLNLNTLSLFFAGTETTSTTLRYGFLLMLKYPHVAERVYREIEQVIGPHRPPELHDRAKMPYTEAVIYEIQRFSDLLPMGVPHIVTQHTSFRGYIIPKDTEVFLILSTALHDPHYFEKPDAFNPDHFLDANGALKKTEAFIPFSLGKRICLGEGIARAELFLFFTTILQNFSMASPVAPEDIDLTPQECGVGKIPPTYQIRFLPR

[4] = target: T3, CYP1A2 (Homo sapiens, UniProt P05177); assay: CYP inhibition in human liver microsomes; conditions: human, human liver microsomes, probe phenacetin
T3 sequence (P05177 1-516): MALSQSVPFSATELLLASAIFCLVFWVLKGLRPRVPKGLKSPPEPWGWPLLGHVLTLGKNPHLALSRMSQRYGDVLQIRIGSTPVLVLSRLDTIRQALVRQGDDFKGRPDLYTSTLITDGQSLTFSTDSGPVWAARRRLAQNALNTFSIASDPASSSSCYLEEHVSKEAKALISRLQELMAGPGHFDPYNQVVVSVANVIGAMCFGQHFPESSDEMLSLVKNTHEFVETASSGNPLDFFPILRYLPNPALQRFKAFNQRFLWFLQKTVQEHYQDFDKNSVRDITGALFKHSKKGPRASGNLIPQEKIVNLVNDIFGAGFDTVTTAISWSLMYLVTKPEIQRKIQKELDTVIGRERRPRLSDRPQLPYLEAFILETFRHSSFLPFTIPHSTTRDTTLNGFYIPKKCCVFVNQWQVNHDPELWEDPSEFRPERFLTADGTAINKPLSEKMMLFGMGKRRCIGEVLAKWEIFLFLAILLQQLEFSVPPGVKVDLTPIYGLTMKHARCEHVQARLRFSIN

[5] = target: CYP2C19 (Homo sapiens, UniProt P33261); assay: CYP inhibition in human liver microsomes; conditions: human, human liver microsomes, probe mephenytoin
CYP2C19, sequence (P33261 whole entry): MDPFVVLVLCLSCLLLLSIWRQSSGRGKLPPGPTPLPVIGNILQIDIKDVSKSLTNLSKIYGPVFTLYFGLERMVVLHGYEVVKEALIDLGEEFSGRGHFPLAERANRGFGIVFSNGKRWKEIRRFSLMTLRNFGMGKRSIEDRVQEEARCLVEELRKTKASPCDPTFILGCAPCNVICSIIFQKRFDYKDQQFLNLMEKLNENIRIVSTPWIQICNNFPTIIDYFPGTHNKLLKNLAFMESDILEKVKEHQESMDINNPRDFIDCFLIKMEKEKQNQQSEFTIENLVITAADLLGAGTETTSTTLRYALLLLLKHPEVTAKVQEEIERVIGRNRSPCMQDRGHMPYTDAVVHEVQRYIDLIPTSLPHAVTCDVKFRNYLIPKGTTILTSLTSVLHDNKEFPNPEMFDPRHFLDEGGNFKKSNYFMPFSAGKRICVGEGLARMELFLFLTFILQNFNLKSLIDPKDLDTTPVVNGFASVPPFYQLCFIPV

[6] = target: T4, CYP2C8 (Homo sapiens, UniProt P10632); assay: CYP inhibition in human liver microsomes; conditions: human, human liver microsomes, probe paclitaxel
T4 sequence (P10632 1-490): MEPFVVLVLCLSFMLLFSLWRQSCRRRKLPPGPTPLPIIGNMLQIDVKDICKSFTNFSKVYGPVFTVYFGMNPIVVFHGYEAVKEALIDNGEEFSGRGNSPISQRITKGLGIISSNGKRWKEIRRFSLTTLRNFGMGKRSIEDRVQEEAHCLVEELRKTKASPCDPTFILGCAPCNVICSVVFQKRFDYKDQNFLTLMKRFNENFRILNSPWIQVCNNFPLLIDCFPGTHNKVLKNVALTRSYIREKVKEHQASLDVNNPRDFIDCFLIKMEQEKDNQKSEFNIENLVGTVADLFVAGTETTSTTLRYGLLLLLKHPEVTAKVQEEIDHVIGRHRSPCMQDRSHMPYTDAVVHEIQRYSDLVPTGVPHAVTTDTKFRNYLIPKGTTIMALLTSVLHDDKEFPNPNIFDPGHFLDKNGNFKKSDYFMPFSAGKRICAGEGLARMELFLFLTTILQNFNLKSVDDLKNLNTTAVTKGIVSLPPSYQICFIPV

[7] = target: CYP3A4 (Homo sapiens, UniProt P08684); assay: in vitro; conditions: microsomes
CYP3A4, sequence (P08684 2-503): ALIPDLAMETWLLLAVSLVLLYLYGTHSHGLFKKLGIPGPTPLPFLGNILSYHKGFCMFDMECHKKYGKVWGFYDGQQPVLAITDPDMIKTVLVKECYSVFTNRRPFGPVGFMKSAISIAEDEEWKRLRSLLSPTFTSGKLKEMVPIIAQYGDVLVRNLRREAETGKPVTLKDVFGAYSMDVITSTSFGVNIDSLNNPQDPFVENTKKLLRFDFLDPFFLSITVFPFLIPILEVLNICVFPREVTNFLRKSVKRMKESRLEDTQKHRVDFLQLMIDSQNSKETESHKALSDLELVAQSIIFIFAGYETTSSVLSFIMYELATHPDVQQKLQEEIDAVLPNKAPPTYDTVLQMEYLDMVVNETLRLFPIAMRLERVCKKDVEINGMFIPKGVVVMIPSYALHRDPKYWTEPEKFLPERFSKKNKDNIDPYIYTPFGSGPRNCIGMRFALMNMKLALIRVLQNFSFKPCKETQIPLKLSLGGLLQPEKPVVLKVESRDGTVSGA

[8] = target: CYP2D6 (Homo sapiens, UniProt P10635); assay: CYP inhibition in human liver microsomes; conditions: human, human liver microsomes, probe bufuralol
CYP2D6, sequence (P10635 whole entry): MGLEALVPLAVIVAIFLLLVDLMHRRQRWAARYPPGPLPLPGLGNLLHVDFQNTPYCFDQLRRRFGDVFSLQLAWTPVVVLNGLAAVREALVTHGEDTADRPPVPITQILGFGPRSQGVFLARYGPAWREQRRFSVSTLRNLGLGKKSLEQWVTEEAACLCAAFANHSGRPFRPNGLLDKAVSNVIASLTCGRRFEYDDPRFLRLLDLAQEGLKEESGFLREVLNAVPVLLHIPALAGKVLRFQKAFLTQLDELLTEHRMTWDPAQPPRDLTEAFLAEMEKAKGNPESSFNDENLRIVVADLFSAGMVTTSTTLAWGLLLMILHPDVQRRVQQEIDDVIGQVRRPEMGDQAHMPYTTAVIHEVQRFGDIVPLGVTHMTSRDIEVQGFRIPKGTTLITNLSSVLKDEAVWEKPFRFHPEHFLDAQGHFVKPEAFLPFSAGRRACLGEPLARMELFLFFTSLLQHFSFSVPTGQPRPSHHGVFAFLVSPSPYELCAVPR

[9] = Phospholipidosis and steatosis, high content screening; type: cell-based; parameters: key to Cell count, Trend (↑↓) / Nuclear size, Trend (↑↓) / DNA structure, Trend (↑↓) / Phospholipidosis, Trend (↑↓) / Steatosis, Trend (↑↓): ↑: increasing trend of response; ↓: decreasing trend of response; conditions: human, HepG2 cells
[10] = tested on: HepG2 cells; assay: as above; type: cell-based; parameters: key to Cell count, Trend (↑↓) / Nuclear size, Trend (↑↓) / DNA structure, Trend (↑↓) / Phospholipidosis, Trend (↑↓) / Steatosis, Trend (↑↓): ↑: increasing trend of response; ↓: decreasing trend of response; conditions: for Steatosis, MEC: (NS) = not statistically significant
[11] = tested on: CYP2B6 mRNA; assay: CYP induction, mRNA, primary cultured human hepatocytes; conditions: Fold Induction (CYP2B6 mRNA expression)
From the text: (§1) Rifampicin as a positive control and solvent (0.1% DMSO) vehicle control were also included. The acceptance criteria for CYP induction was ≥ 2-fold induction for significant CYP activity, while the acceptance criteria for CYP mRNA was ≥ 4-fold for significant CYP induction.

[12] = tested on: CYP2B6; assay: as above; conditions: Fold Induction (CYP2B6 mRNA expression), hepatocyte Lot 399, 1000 µM
From the text: as §1

[13] = tested on: CYP2B6; assay: CYP induction, in situ catalytic activity, human hepatocytes
From the text: as §1

[14] = tested on: CYP1A2 mRNA; assay: CYP induction, mRNA, primary cultured human hepatocytes; type: in vitro ADME; conditions: read-out: CYP1A2 mRNA Fold Induction (fold of vehicle control)
From the text: as §1

[15] = tested on: CYP1A2; assay: CYP induction, in situ catalytic activity, human hepatocytes; type: in vitro ADME
From the text: as §1

[16] = tested on: human hepatocytes; assay: MTT assay, hepatocyte viability; type: cell-based
[17] = # AC50 greater than the maximum surviving concentration, (NS) = not statistically significant, read-out: Steatosis, AC50
[18] = read-out: Phospholipidosis, AC50

CCc1cc(Cl)c(OC)c(N2CCN(C[C@H](O)CCNC(=O)c3cc4ccccc4[nH]3)CC2)c1 [(R)-VK4-116]
Mean % inhibition on hKir2.1 (End) ([1]; 0.01 µM): 8.24% | Mean % inhibition on hKir2.1 (End) ([1]; 0.1 µM): 12.22% | Mean % inhibition on hKir2.1 (End) ([1]; 1 µM): 16.36% | Mean % inhibition on hKir2.1 (End) ([1]; 10 µM): 18.23% | Mean % inhibition on hKir2.1 (End) ([1]; 100 µM): 97.19% | Mean % inhibition on hKir2.1 (Peak) ([1]; 0.01 µM): 9.54% | Mean % inhibition on hKir2.1 (Peak) ([1]; 0.1 µM): 14.42% | Mean % inhibition on hKir2.1 (Peak) ([1]; 1 µM): 19.01% | Mean % inhibition on hKir2.1 (Peak) ([1]; 10 µM): 21.58% | Mean % inhibition on hKir2.1 (Peak) ([1]; 100 µM): 52.64%

[Ba+2].[Cl-].[Cl-] [Barium Chloride]
Mean % inhibition on hKir2.1 (End) ([1]; 1 µM): 11.87% | Mean % inhibition on hKir2.1 (End) ([1]; 3 µM): 30.43% | Mean % inhibition on hKir2.1 (End) ([1]; 10 µM): 55.57% | Mean % inhibition on hKir2.1 (End) ([1]; 30 µM): 85.21% | Mean % inhibition on hKir2.1 (End) ([1]; 100 µM): 89.33% | Mean % inhibition on hKir2.1 (Peak) ([1]; 1 µM): 6.70% | Mean % inhibition on hKir2.1 (Peak) ([1]; 3 µM): 11.92% | Mean % inhibition on hKir2.1 (Peak) ([1]; 10 µM): 17.51% | Mean % inhibition on hKir2.1 (Peak) ([1]; 30 µM): 27.21% | Mean % inhibition on hKir2.1 (Peak) ([1]; 100 µM): 45.99%

CC(=O)N1CCN(c2ccc(OCC3COC(Cn4ccnc4)(c4ccc(Cl)cc4Cl)O3)cc2)CC1 (stereo not drawn) [Ketoconazole]
activity at 20 min, 5 µM ([2]; human liver microsomes, probe diclofenac): 65.8 ± 1.9% | activity at 20 min, 5 µM [3]: 49.1 ± 0.7% | activity at 20 min, 5 µM [4]: 70.7 ± 2.2% | activity at 20 min, 5 µM [5]: 82.9 ± 2.8% | activity at 20 min, 5 µM [6]: 45.7 ± 4.7%

Nc1ccc(S(=O)(=O)Nc2ccnn2-c2ccccc2)cc1 [Sulfaphenazole]
activity at 20 min, 3 µM ([2]; microsomes): 23.6 ± 3.3% | activity at 20 min, 3 µM ([7]; CYP activity (% of Control) 3A4 (Midazolam)): 98.7 ± 5.2% | activity at 20 min, 3 µM ([7]; CYP activity (% of Control) 3A4 (Testosterone)): 95.9 ± 4.3% | activity at 20 min, 3 µM [3]: 100 ± 5.8% | activity at 20 min, 3 µM [4]: 98.1 ± 10.8% | activity at 20 min, 3 µM [5]: 102 ± 6.5% | activity at 20 min, 3 µM [8]: 94.8 ± 7.2% | activity at 20 min, 3 µM [6]: 97.6 ± 19.2%

CN[C@H]1CC[C@@H](c2ccc(Cl)c(Cl)c2)c2ccccc21 [Sertraline]
AC50 [9, 17]: > 3.13 µM | AC50 ([9]; read-out: Cell count, AC50): 2.48 µM | AC50 ([9]; read-out: DNA structure, AC50): 6.23 µM | AC50 ([9]; read-out: Nuclear size, AC50): > 3.13 µM | AC50 [9, 18]: 0.351 µM | Cell count, MEC [10]: 1.61 µM | Cell count, Trend (↑↓) [10]: ↓ | DNA structure, MEC [10]: 0.876 µM | DNA structure, Trend (↑↓) [10]: ↑ | Phospholipidosis, MEC [10]: <0.0977 µM | Phospholipidosis, Trend (↑↓) [10]: ↑ | Steatosis, Trend (↑↓) [10]: ↑ | Steatosis, MEC [10]: 0.822 (NS) μM

CCC1(c2ccccc2)C(=O)NC(=O)NC1=O [Phenobarbital]
fold induction at 48 h, 1000 µM ([11]; hepatocyte Lot 336, 1000 µM): 11 | fold induction at 48 h, 1000 µM ([11]; hepatocyte Lot 348B, 1000 µM): 12 | fold induction at 48 h, 1000 µM [12]: 11 | Bupropion Hydroxylation ([13]; hepatocyte Lot 336, 1000 µM): 3.6 pmol/min/106 cells | Fold of Vehicle Control (CYP2B6 activity, bupropion hydroxylation) ([13]; hepatocyte Lot 336, 1000 µM): 4.0 fold | Fold of Vehicle Control (CYP2B6 activity, bupropion hydroxylation) ([13]; hepatocyte Lot 348B, 1000 µM): 8.6 fold | Fold of Vehicle Control (CYP2B6 activity, bupropion hydroxylation) ([13]; hepatocyte Lot 399, 1000 µM): 19 fold

COc1ccc2[nH]c([S+]([O-])Cc3ncc(C)c(OC)c3C)nc2c1 (stereo not drawn) [Omeprazole, reference compound]
fold induction at 48 h, 50 µM ([14]; Lot 336, 50 µM): 115 | fold induction at 48 h, 50 µM ([14]; Lot 348B, 50 µM): 361 | fold induction at 48 h, 50 µM ([14]; Lot 399, 50 µM): 232 | CYP1A2 activity, Fold of Vehicle Control ([15]; Lot 336, 50 µM): 17 fold | CYP1A2 activity, Fold of Vehicle Control ([15]; Lot 348B, 50 µM): 44 fold | CYP1A2 activity, Fold of Vehicle Control ([15]; Lot 399, 50 µM): 23 fold | Phenacetin-O- deethylation ([15]; Lot 399, 50 µM): 186 pmol/min/106 cells

CC/C(=C(\c1ccccc1)c1ccc(OCCN(C)C)cc1)c1ccccc1 [Tamoxifen]
Hepatocyte Viability, MTT Assay Upfront (Mean) ([16]; 50 µM): 4 | Hepatocyte Viability, Concurrent MTT Assay (Mean) ([16]; Lot 336, 50 µM): 2 | Hepatocyte Viability, Concurrent MTT Assay (Mean) ([16]; Lot 348B, 50 µM): 1 | Hepatocyte Viability, Concurrent MTT Assay (Mean) ([16]; Lot 399, 50 µM): 7 | AC50 [9, 17]: 16.9 µM | AC50 ([9]; read-out: Cell count, AC50): 0.442 µM | AC50 ([9]; read-out: DNA structure, AC50): 6.3 µM | AC50 ([9]; read-out: Nuclear size, AC50): 3.05 µM | AC50 [9, 18]: 0.764 µM | Cell count, MEC [10]: 0.360 µM | Cell count, Trend (↑↓) [10]: ↑ | DNA structure, MEC [10]: 2.57 µM | DNA structure, Trend (↑↓) [10]: ↑ | Nuclear size, MEC [10]: 0.672 µM | Nuclear size, Trend (↑↓) [10]: ↓ | Phospholipidosis, MEC [10]: 0.447 µM | Steatosis, Trend (↑↓) [10]: ↑ | Steatosis, MEC [10]: 4.38 µM
